This is an account of results in ChEMBL document CHEMBL5518235, “Identification of Novel Series of Potent and Selective Relaxin Family Peptide Receptor 1 (RXFP1) Agonists” (J Med Chem, 2024).

In one series the target is T1, Relaxin receptor 1 (Homo sapiens, UniProt Q9HBX9).
T1 sequence (Q9HBX9 whole entry): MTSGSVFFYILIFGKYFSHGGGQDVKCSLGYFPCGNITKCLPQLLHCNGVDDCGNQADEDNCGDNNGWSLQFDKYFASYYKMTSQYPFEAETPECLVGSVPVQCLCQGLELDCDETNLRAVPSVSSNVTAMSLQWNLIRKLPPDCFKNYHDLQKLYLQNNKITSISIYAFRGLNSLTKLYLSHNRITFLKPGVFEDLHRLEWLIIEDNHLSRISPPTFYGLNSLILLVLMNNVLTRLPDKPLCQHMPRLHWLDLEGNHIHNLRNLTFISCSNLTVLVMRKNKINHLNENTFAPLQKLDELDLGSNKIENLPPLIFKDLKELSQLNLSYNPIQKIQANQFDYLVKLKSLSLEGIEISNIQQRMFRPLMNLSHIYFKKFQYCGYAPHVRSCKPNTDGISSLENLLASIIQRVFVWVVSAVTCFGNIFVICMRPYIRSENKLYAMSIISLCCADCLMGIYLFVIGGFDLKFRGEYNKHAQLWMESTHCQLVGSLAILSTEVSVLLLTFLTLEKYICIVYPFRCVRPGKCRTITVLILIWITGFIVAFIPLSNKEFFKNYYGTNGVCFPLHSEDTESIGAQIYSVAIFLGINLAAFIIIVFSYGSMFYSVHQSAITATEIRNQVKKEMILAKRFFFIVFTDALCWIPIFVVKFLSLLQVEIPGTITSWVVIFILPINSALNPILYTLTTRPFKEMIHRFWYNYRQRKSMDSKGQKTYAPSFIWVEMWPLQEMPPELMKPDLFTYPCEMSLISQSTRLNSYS
Briefly: (§1) Agonist activity at human RXFP1 expressed in T-Rex-CHO-K1 cells assessed as stimulation of cAMP production incubated for 45 mins by HTRF assay. The class given is functional, cell-based. In general terms: Changes in cAMP serve as a functional read-out for many G protein-coupled receptors.

The target in series [1] is T2, Relaxin receptor 1 (Homo sapiens) (UniProt Q9HBX9).
T2 sequence (whole entry): T1 sequence (Q9HBX9 whole entry)
Briefly: Agonist activity at human RXFP1 expressed in T-Rex-CHO-K1 cells assessed as stimulation of cAMP production by measuring maximal efficacy at 50 uM incubated for 45 mins by HTRF assay relative to control. The class given is functional, cell-based. Particulars: filed as agonist.

A short description of series [2]: Lipophilicity, logD of the compound in 1-octanol and phosphate buffer at pH 7.4 incubated for 3 hrs by shake flask method based LC/MS/MS analysis. The class given is physicochemical. Particulars: for logD at 3 h: 1-octanol/phosphate buffer, pH 7.4.
Series [3] in a line: Metabolic stability in human liver microsomes assessed as intrinsic clearance at 1 uM incubated for 30 mins in presence of NADPH by LC-MS/MS analysis. The class given is ADME, Microsome. As to conditions: for microsomal CLint at 1 µM: liver microsomes, read-out: CLH.
Series [4] is described as follows: Metabolic stability in human liver microsomes assessed as unbound intrinsic clearance at 1 uM incubated for 30 mins in presence of NADPH by LC-MS/MS analysis. The class given is ADME, Microsome. As to conditions: 0.5 h.
The nature of series [5]: Metabolic stability in cryopreserved human hepatocytes assessed as intrinsic clearance measured per 10^6 cells at 1 uM after 120 mins by LC-MS/MS analysis. As to conditions: cryopreserved hepatocytes, read-out: CLH. It is filed as ADME, cell-based, Hepatocyte.
Series [6] can be described thus: Metabolic stability in cryopreserved human hepatocytes assessed as unbound intrinsic clearance measured per 10^6 cells at 1 uM measured after 120 mins by LC-MS/MS analysis. As to conditions: 2 h. It is filed as ADME, cell-based, Hepatocyte.
Series [7] addresses T2, Relaxin receptor 1 (Homo sapiens). The description is as §1. It is filed as functional, cell-based.

Active and inactive are the calls of the source. The rule behind the calls is not given here.

Regarding `COc1cc(F)c(-c2ccc(S(N)(=O)=O)cc2)cc1C(=O)N[C@@H]1[C@H]2CC[C@H](C2)[C@@H]1C(=O)Nc1cccc(S(=O)(=O)C(F)(F)F)c1`, the EC50 (commonly the concentration giving half of the maximal effect) on Relaxin receptor 1 was 251 nM. In series [1], the Emax (in general, the maximal effect, on the per cent scale that the assay sets) turned out to be 109%. Further, the logD (in general, lipophilicity at a set pH, counting ionised and neutral species) at 3 h in series [2] was above 3.7. Moreover, the microsomal CLint at 1 µM in series [3] amounted to 74 µL/min/mg. Moreover, the results for the CL free in series [4] and in series [6] were 92000 µL/min/mg and 7.8 10^3uL/min, respectively. In series [5], the hepatocyte CLint at 1 µM worked out at 18 µL/min/1e6 cells.
With `COc1cc(F)c(-c2ccc(C(=O)O)cc2)cc1C(=O)Nc1ccccc1C(=O)Nc1cccc(S(=O)(=O)C(F)(F)F)c1`, the 50% effective concentration (EC50) on Relaxin receptor 1 is 200 nM. Also, the Emax in series [1] was 115%. For the same compound, the logD at 3 h in series [2] is above 3.9. In series [3], the microsomal CLint at 1 µM was below 3 µL/min/mg. In addition, the results for the CL free in series [4] and in series [6] were below 333 µL/min/mg and 3.9 10^3uL/min, respectively. In addition, the hepatocyte CLint at 1 µM in series [5] came out at 11 µL/min/1e6 cells.
For the compound `COc1ccccc1C(=O)N[C@H]1CN(C)C[C@H]1C(=O)Nc1cccc(S(=O)(=O)C(F)(F)F)c1` (racemic), the result in series [7] was inactive. In series [2], the logD at 3 h was found to be 3.5. In addition, the microsomal CLint at 1 µM in series [3] turned out to be 173 µL/min/mg. For the same compound, the CL free in series [4] is 0.98 10^3uL/min/mg.
In the case of `COc1cc(F)c(-c2ccc(C(=O)O)cc2)cc1C(=O)N[C@@H]1[C@H]2CC[C@H](C2)[C@@H]1C(=O)Nc1cccc(S(=O)(=O)C(F)(F)F)c1`, the EC50 on Relaxin receptor 1 is 158 nM. For the same compound, the maximum response (Emax) in series [1] was found to be 103%. In series [2], this compound yielded a logD at 3 h of 3.6. Also, the microsomal CLint at 1 µM in series [3] stood at 16 µL/min/mg. In addition, the CL free in series [4] is 314 µL/min/mg; in series [6] it was 1.3 10^3uL/min. Moreover, the hepatocyte CLint at 1 µM in series [5] was determined as 32 µL/min/1e6 cells.
Consider `COc1ccccc1C(=O)N[C@@H]1CCCC[C@@H]1C(=O)Nc1cccc(S(=O)(=O)C(F)(F)F)c1` (racemic), for which, in series [7], the outcome was inactive. Also, the pH-dependent lipophilicity (logD) at 3 h in series [2] was determined as 4.4. Also, in series [3], the microsomal CLint at 1 µM is 242 µL/min/mg. Also, in series [4], the CL free is 6.3 10^3uL/min/mg.
Take `COc1ccccc1C(=O)N[C@H]1[C@@H](C(=O)Nc2cccc(S(=O)(=O)C(F)(F)F)c2)[C@@H]2C=C[C@H]1C2`: the EC50 at Relaxin receptor 1 was 2510 nM. Moreover, the Emax in series [1] came out at 108%. In series [2], this compound registered a log distribution coefficient (logD) at 3 h of 4.4. Also, the microsomal CLint at 1 µM in series [3] came out at 44 µL/min/mg. Further, the CL free in series [4] is > 29 10^3uL/min/mg; in series [6], 1.8 10^3uL/min. Also, the hepatocyte CLint at 1 µM in series [5] came out at 8.9 µL/min/1e6 cells.
Turning to `COc1ccccc1C(=O)Nc1ccccc1C(=O)Nc1cccc(S(=O)(=O)C(F)(F)F)c1`, the EC50 on Relaxin receptor 1 is 3160 nM. The Emax in series [1] was found to be 153%. Further, the logD at 3 h in series [2] is above 4. Besides, in series [3], the microsomal CLint at 1 µM turned out to be 12 µL/min/mg. Further, the values for the CL free in series [4] and in series [6] were 3.7 10^3uL/min/mg and 0.96 10^3uL/min, respectively. Also, in series [5], the hepatocyte CLint at 1 µM was 6.7 µL/min/1e6 cells.
As for `COc1cc(F)c(-c2cccc(C(=O)O)c2)cc1C(=O)N[C@H]1[C@@H](C(=O)Nc2cccc(S(=O)(=O)C(F)(F)F)c2)[C@@H]2C=C[C@H]1C2`, on Relaxin receptor 1, the EC50 is 158 nM. Moreover, in series [1], the maximum response (Emax) amounted to 103%. Moreover, the logD at 3 h in series [2] worked out at 3.7. Besides, the microsomal CLint at 1 µM in series [3] was below 3 µL/min/mg. Further, the CL free was below 64 µL/min/mg in series [4] and 277 µL/min in series [6]. The hepatocyte CLint at 1 µM in series [5] came to 5.4 µL/min/1e6 cells.
Regarding `COc1cc(F)c(-c2ncc(C(=O)O)s2)cc1C(=O)N[C@H]1[C@@H](C(=O)Nc2cccc(S(=O)(=O)C(F)(F)F)c2)[C@@H]2C=C[C@H]1C2` (racemic), at Relaxin receptor 1, the EC50 is 631 nM. In series [1], the Emax amounted to 111%. In series [2], this compound yielded a logD at 3 h of 1.7. In addition, in series [3], the microsomal CLint at 1 µM turned out to be 13 µL/min/mg. In addition, the CL free in series [4] came to 65 µL/min/mg.
Turning to `COc1cc(F)c(-c2ccc(C[C@H](C(=O)O)N(C)C)cc2)cc1C(=O)N[C@@H]1[C@H]2CC[C@H](C2)[C@@H]1C(=O)Nc1cccc(S(=O)(=O)C(F)(F)F)c1`, the EC50 at Relaxin receptor 1 is 200 nM. Also, the Emax in series [1] amounted to 105%. The compound further registered a logD at 3 h in series [2] of 3.7. In addition, the microsomal CLint at 1 µM in series [3] came to 28 µL/min/mg. Further, in series [4], the CL free was 1.1 10^3uL/min/mg.
Taken in the same sequence, the figures for `COc1cc(F)c(F)cc1C(=O)N[C@@H]1[C@H](C(=O)Nc2cccc(S(=O)(=O)C(F)(F)F)c2)[C@H]2C=C[C@@H]1C2` (racemic) were 794 nM, 109%, above 4.2, above 300 µL/min/mg and > 25 10^3uL/min/mg.
Regarding `COc1ccc(-c2cccnc2)cc1C(=O)N[C@@H]1[C@H](C(=O)Nc2cccc(S(=O)(=O)C(F)(F)F)c2)[C@H]2C=C[C@@H]1C2` (racemic), on Relaxin receptor 1, the 50% effective concentration (EC50) was 1740 nM. Moreover, the Emax in series [1] is 87%. The compound also showed a pH-dependent lipophilicity (logD) at 3 h in series [2] of 4.7. Also, the microsomal CLint at 1 µM in series [3] was above 300 µL/min/mg. Besides, the CL free in series [4] is listed as > 38 10^3uL/min/mg.
For `COc1cc(F)c(-c2ccc(C(=O)O)cc2)cc1C(=O)N[C@H]1[C@@H](C(=O)Nc2cccc(S(=O)(=O)C(F)(F)F)c2)[C@@H]2C=C[C@H]1C2`, the concentration for a half-maximal effect (EC50) on Relaxin receptor 1 was 158 nM. Moreover, the logD in series [2] (octanol/water, pH 7.4, 3 h, 3 h) is recorded as 3.8. The CLH in series [3] (microsomes, 0.5 h, 1 µM) came to 7.2 µL/min/mg. Moreover, the CL free is 100 µL/min/mg in series [4] and 334 µL/min in series [6]. The hepatocyte CLint at 1 µM in series [5] turned out to be 11.7 µL/min/1e6 cells.
On to `COc1cc(F)c(-c2ccc(C(=O)O)cc2)cc1C(=O)N[C@@H]1[C@H](C(=O)Nc2cccc(S(=O)(=O)C(F)(F)F)c2)[C@H]2C=C[C@@H]1C2`, for which, in series [7], the outcome was inactive. The compound also yielded a logD at 3 h in series [2] of 3.8. Further, the microsomal CLint at 1 µM in series [3] was 9.9 µL/min/mg. For the same compound, the CL free in series [4] was found to be 150 µL/min/mg; in series [6], 484 µL/min. In addition, the hepatocyte CLint at 1 µM in series [5] was determined as 9.2 µL/min/1e6 cells.
As to `COc1cc(F)c(-c2ccc(CC(=O)O)cc2)cc1C(=O)N[C@H]1[C@@H](C(=O)Nc2cccc(S(=O)(=O)C(F)(F)F)c2)[C@@H]2C=C[C@H]1C2` (racemic), the EC50 at Relaxin receptor 1 is 79.4 nM. Also, the Emax in series [1] came to 110%. For the same compound, the logD at 3 h in series [2] is 3.2. The microsomal CLint at 1 µM in series [3] was 4.6 µL/min/mg. For the same compound, the CL free in series [4] was found to be 111 µL/min/mg; in series [6], 295 µL/min. For the same compound, in series [5], the hepatocyte CLint at 1 µM stood at 6.5 µL/min/1e6 cells.
On to `COc1cc(F)ccc1C(=O)N[C@@H]1[C@H](C(=O)Nc2cccc(S(=O)(=O)C(F)(F)F)c2)[C@H]2C=C[C@@H]1C2` (racemic), for which the EC50 on Relaxin receptor 1 is 1580 nM. The Emax in series [1] was found to be 113%. This compound gave a logD at 3 h in series [2] above 3. The microsomal CLint at 1 µM in series [3] was above 300 µL/min/mg. The CL free in series [4] is on record as > 14 10^3uL/min/mg.
